Source: ChEMBL document CHEMBL2007661, “Compounds: GSK PKIS; Assays: UNC Frye lab” (2012)
Values joined by “and” are separate entries in the source; they are usually repeats but may differ in a detail not shown here. Equal entries are not always repeated.

Experiments:
Conditions in all cases: at 1 µM
[1] = target: T1, Inhibitor of nuclear factor kappa-B kinase subunit beta (Homo sapiens) (UniProt O14920)
T1 sequence (whole entry): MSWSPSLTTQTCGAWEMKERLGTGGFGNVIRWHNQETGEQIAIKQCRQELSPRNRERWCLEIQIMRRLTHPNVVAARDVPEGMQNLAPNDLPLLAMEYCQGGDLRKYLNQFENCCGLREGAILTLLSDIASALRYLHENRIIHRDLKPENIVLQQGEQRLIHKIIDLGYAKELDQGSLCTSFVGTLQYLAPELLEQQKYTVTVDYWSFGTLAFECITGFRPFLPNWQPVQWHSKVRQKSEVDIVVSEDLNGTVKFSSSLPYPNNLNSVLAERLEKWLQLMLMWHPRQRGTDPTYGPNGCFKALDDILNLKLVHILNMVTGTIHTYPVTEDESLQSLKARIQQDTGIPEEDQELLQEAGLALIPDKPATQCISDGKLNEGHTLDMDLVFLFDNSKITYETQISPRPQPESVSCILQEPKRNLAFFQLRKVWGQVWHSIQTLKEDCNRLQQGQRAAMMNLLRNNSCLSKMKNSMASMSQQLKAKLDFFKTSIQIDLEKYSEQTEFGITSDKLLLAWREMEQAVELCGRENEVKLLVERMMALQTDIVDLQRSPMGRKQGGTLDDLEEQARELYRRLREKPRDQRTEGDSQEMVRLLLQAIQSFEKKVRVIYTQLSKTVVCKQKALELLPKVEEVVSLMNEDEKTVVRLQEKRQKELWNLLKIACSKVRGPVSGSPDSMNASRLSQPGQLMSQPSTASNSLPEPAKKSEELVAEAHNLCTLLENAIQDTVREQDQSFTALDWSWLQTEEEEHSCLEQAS

[2] = target: T2, Inhibitor of nuclear factor kappa-B kinase subunit epsilon (Homo sapiens) (UniProt Q14164)
T2 sequence (whole entry): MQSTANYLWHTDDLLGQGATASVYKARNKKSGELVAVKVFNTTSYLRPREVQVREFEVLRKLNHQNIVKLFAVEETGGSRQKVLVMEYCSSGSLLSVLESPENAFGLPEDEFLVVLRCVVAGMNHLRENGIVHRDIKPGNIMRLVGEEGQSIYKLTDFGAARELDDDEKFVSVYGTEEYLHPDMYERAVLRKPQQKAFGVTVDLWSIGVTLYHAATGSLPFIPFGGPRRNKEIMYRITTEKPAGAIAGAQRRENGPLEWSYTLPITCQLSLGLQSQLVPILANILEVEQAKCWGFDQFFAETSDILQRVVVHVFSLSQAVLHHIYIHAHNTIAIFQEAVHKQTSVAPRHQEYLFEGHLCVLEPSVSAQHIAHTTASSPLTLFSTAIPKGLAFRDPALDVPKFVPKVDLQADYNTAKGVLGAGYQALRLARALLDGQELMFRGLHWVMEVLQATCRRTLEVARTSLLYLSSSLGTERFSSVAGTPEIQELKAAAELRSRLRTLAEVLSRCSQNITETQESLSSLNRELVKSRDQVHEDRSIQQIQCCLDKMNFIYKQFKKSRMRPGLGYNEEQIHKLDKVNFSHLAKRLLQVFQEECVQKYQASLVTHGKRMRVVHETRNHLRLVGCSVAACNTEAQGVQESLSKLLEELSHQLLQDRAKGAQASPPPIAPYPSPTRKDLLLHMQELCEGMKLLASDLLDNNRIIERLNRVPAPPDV

[3] = target: T3, Serine/threonine-protein kinase TBK1 (Homo sapiens) (UniProt Q9UHD2)
T3 sequence (whole entry): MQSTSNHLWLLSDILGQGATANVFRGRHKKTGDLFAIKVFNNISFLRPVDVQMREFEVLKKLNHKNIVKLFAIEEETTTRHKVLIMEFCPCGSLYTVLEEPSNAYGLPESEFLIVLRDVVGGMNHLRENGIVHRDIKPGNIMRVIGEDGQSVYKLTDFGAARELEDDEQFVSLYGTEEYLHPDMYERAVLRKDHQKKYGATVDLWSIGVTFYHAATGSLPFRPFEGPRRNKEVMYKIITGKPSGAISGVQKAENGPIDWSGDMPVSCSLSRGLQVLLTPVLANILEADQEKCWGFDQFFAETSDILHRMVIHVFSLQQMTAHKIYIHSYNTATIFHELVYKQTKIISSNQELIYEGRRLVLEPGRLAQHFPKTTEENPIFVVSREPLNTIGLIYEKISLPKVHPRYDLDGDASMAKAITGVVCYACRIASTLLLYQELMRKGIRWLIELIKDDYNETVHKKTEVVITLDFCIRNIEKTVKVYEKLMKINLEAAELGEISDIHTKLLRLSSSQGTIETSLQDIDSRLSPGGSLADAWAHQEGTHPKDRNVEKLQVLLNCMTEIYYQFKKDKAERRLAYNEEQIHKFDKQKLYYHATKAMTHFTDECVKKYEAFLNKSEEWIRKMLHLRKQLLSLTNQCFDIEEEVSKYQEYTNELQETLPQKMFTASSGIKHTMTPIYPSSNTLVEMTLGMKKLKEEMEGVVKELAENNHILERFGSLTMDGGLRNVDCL

Row | SMILES | inhibition [1] | inhibition [2] | inhibition [3]
1 | CNC(=O)c1ncccc1Nc1nc(Nc2cc3c(cc2OC)CCCN3C(=O)CN(C)C)nc2[nH]ccc12 | -5% and -3% | 0% and 5% | 8% and 12%
2 | COc1ccc(C2=C(N3CCc4ccccc43)C(=O)NC2=O)cc1 | -2% and -6% | -1% and 0% | 0% and 3%
3 | CC1=C(C(=O)Nc2ccc3[nH]ncc3c2)C(c2ccc(Cl)c(Cl)c2)CC(=O)N1 (stereo unspecified) | 2% | 0% and 1% | 3% and 2%
4 | CCn1c(-c2nonc2N)nc2cnc(Oc3cccc(NC(=O)c4ccc(N(C)C)cc4)c3)cc21 | -1% and -2% | 31% | 4% and 1%
5 | CS(=O)(=O)Nc1ccc(-c2cc(-c3ccccc3)cc(C(N)=O)c2N)cc1 | -1% and -4% | -2% and -1% | -2% and -4%
6 | COC(=O)Nc1nc2ccc(Oc3ccc(NC(=O)Nc4cccc(Cl)c4)cc3)cc2[nH]1 | -2% and 0% | 2% and 1% | 0% and 2%
7 | Nc1ncnc2occ(-c3ccc(NC(=O)Nc4cccc(C(F)(F)F)c4)cc3)c12 | -7% and -9% | 19% and 16% | 0% and -1%
8 | CC1(C)CC(n2cnc(-c3ccc(F)cc3)c2-c2ccnc(N)n2)CC(C)(C)N1 | -3% and -4% | -1% and 4% | -5% and -3%
9 | CS(=O)(=O)CCNCc1nc(-c2ccc3ncnc(Nc4ccc(OCc5cccc(C(F)(F)F)c5)cc4)c3c2)cs1 | -2% and -1% | 0% | -2% and 1%
10 | NS(=O)(=O)c1ccc(N/N=C2\C(=O)Nc3ccc(C(=O)NCc4ccncc4)cc32)cc1 | -1% and 0% | 65% | 59% and 60%
11 | CS(=O)(=O)CCNCc1ccc(-c2ccc3ncnc(Nc4ccc(OCc5ccccc5)cc4)c3c2)o1 | -2% and -3% | -1% | -1% and -2%
12 | COc1cccc(-n2nc(C)c3c(N/N=C(\C)c4ccncc4)ncnc32)c1 | -3% | 18% and 3% | 4% and 2%
